Data taken from patent US11638713B2, “Patentiflorin A analogs as antiviral agents” (priority 2019, dated 2023).

What was measured:
HIV = experiment: microbe, parasite or virus in culture; format: cell-based; details: for EC50: Human immunodeficiency virus 1, A549
in vitro = details: human
H5N1 virus = experiment: microbe, parasite or virus in culture; format: cell-based, H5N1 influenza virus; details: Influenza A virus, read-out: % Inhibition against H5N1 virus; for inhibition at 0.05 µg/mL: H5N1, A549, 50 ng/mL; for inhibition at 0.25 µg/mL: H5N1, A549, 250 ng/mL; for inhibition at 1 µg/mL: H5N1, A549, 1000 ng/mL; for inhibition at 5 µg/mL: H5N1, A549, 5000 ng/mL

SMILES	EC50 (HIV)	CC50 (in vitro; CC50 (nM))	further results
COc1cc2c(Nc3ccccc3)c3c(c(-c4ccc5c(c4)OCO5)c2cc1OC)C(=O)OC3 [Compound 19f]	976 nM	4510 nM	
COc1cc2c(C)c3c(c(-c4ccc5c(c4)OCO5)c2cc1OC)C(=O)OC3 [Compound 19b]	6.1 nM	77.3 nM	
C#CCOc1c2c(c(-c3ccc4c(c3)OCO4)c3cc(OC)c(OC)cc13)C(=O)OC2 [Compound 17c]	4.8 nM	890 nM	anti-HIV activity in terms of SI values (HIV): much more improved anti-HIV activity
COc1cc2c(OC3O[C@H](C)[C@@H](O)[C@H](OC(=O)C(Cl)(Cl)Cl)[C@H]3O)c3c(c(-c4ccc5c(c4)OCO5)c2cc1OC)C(=O)OC3 (stereo partly drawn) [Compound 31k, 3″-O-trichloroacetyl-7-O-β-D-patentiflorin A]		508 nM	inhibition at 0.05 µg/mL (H5N1 virus): 86%; inhibition at 0.25 µg/mL (H5N1 virus): 95.7%
CNC(=O)COc1c2c(c(-c3ccc4c(c3)OCO4)c3cc(OC)c(OC)cc13)C(=O)OC2 [Compound 14b]	278 nM	2120 nM	
COc1cc2c(OC3OC[C@@H](O)[C@H](O)[C@H]3O)c3c(c(-c4ccc5c(c4)OCO5)c2cc1OC)C(=O)OC3 (stereo partly drawn) [Compound 26a, 7β-D-xylosyloxydiphyllin]		6220 nM	inhibition at 1 µg/mL (H5N1 virus): 93.6%; inhibition at 5 µg/mL (H5N1 virus): 97.8%
COc1cc2c(OCC(N)=O)c3c(c(-c4ccc5c(c4)OCO5)c2cc1OC)C(=O)OC3 [Compound 14a]	103 nM	548 nM	
COc1cc2c(C3=CCN(C(=O)OC(C)(C)C)CC3)c3c(c(-c4ccc5c(c4)OCO5)c2cc1OC)C(=O)OC3 [Compound 19l]	75.9 nM	4190 nM	
COc1cc2c(OCC(C)(C)O)c3c(c(-c4ccc5c(c4)OCO5)c2cc1OC)C(=O)OC3 [Compound 15b]	15.5 nM	1330 nM	
COc1cc2c(OS(=O)(=O)C(F)(F)F)c3c(c(-c4ccc5c(c4)OCO5)c2cc1OC)C(=O)OC3 [Compound 18]	488 nM	1360 nM	
COc1cc2c(OC3OC[C@@H](OC(C)=O)[C@H](O)[C@H]3OC(C)=O)c3c(c(-c4ccc5c(c4)OCO5)c2cc1OC)C(=O)OC3 (stereo partly drawn) [Compound 27ae, 2″,4″-Diacetyl-7-O-β-D-xylosyldiphyllin]		2590 nM	
COc1cc2c(Oc3ncccn3)c3c(c(-c4ccc5c(c4)OCO5)c2cc1OC)C(=O)OC3 [Compound 17d]	1590 nM	61100 nM	
COc1cc2c(OC(C)=O)c3c(c(-c4ccc5c(c4)OCO5)c2cc1OC)C(=O)OC3 [Compound 16]		3400 nM	
CC(=O)O[C@H]1C(=O)[C@@]2(C)[C@H]([C@H](OC(=O)c3ccccc3)[C@]3(O)C[C@H](OC(=O)[C@H](O)[C@@H](NC(=O)c4ccccc4)c4ccccc4)C(C)=C1C3(C)C)[C@]1(OC(C)=O)CO[C@@H]1C[C@@H]2O [taxol, reference compound]			CC50 (in vitro; CC50 against the host cell line A549): 2.99 nM
COc1cc2c(OC3O[C@H](C)[C@@H](O)[C@H](OC(=O)N(C)C)[C@H]3O)c3c(c(-c4ccc5c(c4)OCO5)c2cc1OC)C(=O)OC3 (stereo partly drawn) [Compound 31f, 3″-O-dimethylcarbamyl-7-O-β-D-patentiflorin A]		3.74 nM	
COc1cc2c(OC3O[C@@H](C)[C@@H](O)[C@@H](O)[C@@H]3O)c3c(c(-c4ccc5c(c4)OCO5)c2cc1OC)C(=O)OC3 (stereo partly drawn) [Compound 26d, 7-O-β-L-fucopyranosyldiphyllin]	42.3 nM	> 9500 nM	anti-HIV activity in terms of SI values (HIV): much more improved anti-HIV activity
COc1cc2c(OCCO)c3c(c(-c4ccc5c(c4)OCO5)c2cc1OC)C(=O)OC3 [Compound 15a]	33.6 nM	918 nM	
COc1cc2c(OC3O[C@H](C)[C@@H](O)[C@H](OC(C)=O)[C@H]3OC(C)=O)c3c(c(-c4ccc5c(c4)OCO5)c2cc1OC)C(=O)OC3 (stereo partly drawn) [Compound 27bf, 2″,3″-Diacetyl-7-O-β-D-patentiflorin A]	1.17 nM	308 nM	
CCCC(=O)O[C@H]1[C@H](O)[C@@H](C)OC(Oc2c3c(c(-c4ccc5c(c4)OCO5)c4cc(OC)c(OC)cc24)C(=O)OC3)[C@@H]1O (stereo partly drawn) [Compound 31c, 3″-O-butyryl-7-O-β-D-patentiflorin A]	0.03 nM	13.4 nM	anti-HIV activity in terms of SI values (HIV): much more improved anti-HIV activity
COc1cc2c(C(C)=O)c3c(c(-c4ccc5c(c4)OCO5)c2cc1OC)C(=O)OC3 [Compound 19n]	39.5 nM	1060 nM	
COc1cc2c(OC)c3c(c(-c4ccc5c(c4)OCO5)c2cc1OC)C(=O)OC3 [Compound 17b]	2.6 nM	2140 nM	anti-HIV activity in terms of SI values (HIV): much more improved anti-HIV activity
COc1cc2c(OC3O[C@H](C)[C@@H](OC(C)=O)[C@H](OC(C)=O)[C@H]3OC(C)=O)c3c(c(-c4ccc5c(c4)OCO5)c2cc1OC)C(=O)OC3 (stereo partly shown) [Compound 25b, Peracetylated Patentiflorin A]		259 nM	

SMILES	EC50 (HIV)	CC50 (in vitro; CC50 (nM))	further results
COc1cc2c(OC3O[C@H](C)[C@@H](O)[C@H](OC(=O)c4cc([N+](=O)[O-])cc([N+](=O)[O-])c4)[C@H]3O)c3c(c(-c4ccc5c(c4)OCO5)c2cc1OC)C(=O)OC3 (stereo partly drawn) [Compound 31b, 3″-O-(3,5-dinitrobenzoyl)-7-O-β-D-patentiflorin A]	13.4 nM	684 nM	
COc1cc2c(OC3OC[C@@H](O)[C@H](O)[C@H]3OC(C)=O)c3c(c(-c4ccc5c(c4)OCO5)c2cc1OC)C(=O)OC3 (stereo partly shown) [Compound 27ac]		2940 nM	
COc1cc2c(-c3ccncc3)c3c(c(-c4ccc5c(c4)OCO5)c2cc1OC)C(=O)OC3 [Compound 19c]	88.9 nM	1670 nM	
COc1ccc(C(=O)Oc2c3c(c(-c4ccc5c(c4)OCO5)c4cc(OC)c(OC)cc24)C(=O)OC3)cc1 [Compound 17h]	96.5 nM	1460 nM	
COc1cc2c(C#C[Si](C)(C)C)c3c(c(-c4ccc5c(c4)OCO5)c2cc1OC)C(=O)OC3 [Compound 19o]	35.7 nM	1220 nM	
COc1cc2c(OC3O[C@H](C)[C@@H](OC(C)=O)[C@H](OC(C)=O)[C@H]3O)c3c(c(-c4ccc5c(c4)OCO5)c2cc1OC)C(=O)OC3 (stereo partly drawn) [Compound 27bd, 3″, 4″-Diacetyl-7-O-β-D-patentiflorin A]	6.39 nM	421 nM	
COc1cc2c(-c3ccc4c(c3)OCO4)c3c(c(C(C)O)c2cc1OC)COC3=O (stereo not shown) [Compound 20]	21.7 nM	389 nM	
COc1cc2c(OC3O[C@H](C)[C@@H](O)[C@H](OC(C)=O)[C@H]3O)c3c(c(-c4ccc5c(c4)OCO5)c2cc1OC)C(=O)OC3 (stereo partly drawn) [Compound 27bb, 3″-Acetyl-7-O-β-D-patentiflorin A]	1.01 nM	589 nM	anti-HIV activity in terms of SI values (HIV): much more improved anti-HIV activity
COc1cc2c(OCC(=O)OC(C)(C)C)c3c(c(-c4ccc5c(c4)OCO5)c2cc1OC)C(=O)OC3 [Compound 12a]	518 nM	> 10100 nM	
COc1cc2c(-c3cccnc3)c3c(c(-c4ccc5c(c4)OCO5)c2cc1OC)C(=O)OC3 [Compound 19i]	877 nM	38400 nM	
COc1cc2c(OC3O[C@H](C)[C@@H](O)[C@H](OC(=O)c4ccc(Cl)cc4)[C@H]3O)c3c(c(-c4ccc5c(c4)OCO5)c2cc1OC)C(=O)OC3 (stereo partly drawn) [Compound 31h, 3″-O-p-chlorobenzoyl-7-O-β-D-patentiflorin A]		336 nM	inhibition at 0.05 µg/mL (H5N1 virus): 94.6%; inhibition at 0.25 µg/mL (H5N1 virus): 97.6%
COc1cc2c(OC3OC[C@H](O)[C@H](O)[C@H]3O)c3c(c(-c4ccc5c(c4)OCO5)c2cc1OC)C(=O)OC3 (stereo partly drawn) [Compound 26c, 7-O-α-L-arabinosyldiphyllin]		> 9760 nM	
CCc1c2c(c(-c3ccc4c(c3)OCO4)c3cc(OC)c(OC)cc13)C(=O)OC2 [Compound 19g]	19.3 nM	196 nM	
COc1cc2c(OC3OC[C@@H](OC(C)=O)[C@H](OC(C)=O)[C@H]3O)c3c(c(-c4ccc5c(c4)OCO5)c2cc1OC)C(=O)OC3 (stereo partly drawn) [Compound 27ad, 3″, 4″-Diacetyl-7-O-β-D-xylosyldiphyllin]		783 nM	
COc1cc2c(N)c3c(c(-c4ccc5c(c4)OCO5)c2cc1OC)C(=O)OC3 [Compound 22]	1.61 nM	358 nM	anti-HIV activity in terms of SI values (HIV): much more improved anti-HIV activity
COc1cc2c(OCC(=O)O)c3c(c(-c4ccc5c(c4)OCO5)c2cc1OC)C(=O)OC3 [Compound 13]	23100 nM	> 114000 nM	
COc1cc2c(OC3OC[C@@H](O)[C@H](OC(C)=O)[C@H]3OC(C)=O)c3c(c(-c4ccc5c(c4)OCO5)c2cc1OC)C(=O)OC3 (stereo partly drawn) [Compound 27af, 2″,3″-Diacetyl-7-O-β-D-xylosyldiphyllin]		2250 nM	
COc1cc2c(-c3cccs3)c3c(c(-c4ccc5c(c4)OCO5)c2cc1OC)C(=O)OC3 [Compound 19h]	270 nM	2390 nM	
COc1cc2c(OC3O[C@H](C)[C@@H](O)[C@H](OC(=O)c4ccccc4)[C@H]3O)c3c(c(-c4ccc5c(c4)OCO5)c2cc1OC)C(=O)OC3 (stereo partly drawn) [Compound 31d, 3″-O-benzoyl-7-O-β-D-patentiflorin A]	1.36 nM	> 63 nM	
COc1cc2c(-c3ccc4c(c3)OCO4)c3c(c(N4CCOCC4)c2cc1OC)COC3=O [Compound 19m]	88.6 nM	1500 nM	
COc1cc2c(OC3O[C@H](C)[C@@H](O)[C@H](OC(=O)c4cnccn4)[C@H]3O)c3c(c(-c4ccc5c(c4)OCO5)c2cc1OC)C(=O)OC3 (stereo partly drawn) [Compound 31i, 3″-O-pyrazinecarbonyl-7-O-β-D-patentiflorin A]			anti-HIV activity in terms of SI values (HIV): much more improved anti-HIV activity
COc1cc2c(OC3OC[C@@H](O)[C@H](OC(C)=O)[C@H]3O)c3c(c(-c4ccc5c(c4)OCO5)c2cc1OC)C(=O)OC3 (stereo partly drawn) [Compound 27ab, 3″-Acetyl-7-O-β-D-xylosyldiphyllin]		2760 nM	inhibition at 1 µg/mL (H5N1 virus): 96.9%; inhibition at 5 µg/mL (H5N1 virus): 97.8%
